Results on four compounds are retold here after paper PMC11606974, “Stereoselective chemical N-glycoconjugation of amines via CO2 incorporation” (Nature Communications, 2024).

One data set has as its system HEK-293T cells. Nature of the data set: Cell viability assay (CCK-8, 72 h). As to conditions: Homo sapiens, read-out: HEK-293T IC50 (growth inhibition).
A further data set concerns SK-MEL-28 cells. Nature of the data set: Cell viability assay (CCK-8, 72 h). As to conditions: Homo sapiens, SK-MEL-28, 72 h, read-out: SK-MEL-28 IC50 (growth inhibition).
A further data set relates to SNU-5 cells. Nature of the data set: Cell viability assay (CCK-8, 72 h). Particulars: Homo sapiens, SNU-5, 72 h, read-out: SNU-5 IC50 (growth inhibition).
For data set [1], the target named is ALK (kinase domain, 1068–1410) (Homo sapiens, UniProt Q9UM73). Nature of the data set: Enzymatic inhibition assay, ATP hydrolysis (Kinase-Glo luminescent kit).
Data set [2] can be described thus: Pharmacokinetic analysis of crizotinib glucosides after oral gavage, plasma LC/MS/MS. The class given is in vivo, male C57 mice.
A further data set has as its system cancer cells. On the set-up: method as in PMID 25184545. As to conditions: compared with deglycoBLM (6); cited from earlier work.
Where [3] appears, read: mouse, plasma, oral GA95 91.6 mg/kg, male C57 mice, analyte Glycolcrizotinib.

ALK (kinase domain, 1068–1410), sequence (Q9UM73 1068-1410): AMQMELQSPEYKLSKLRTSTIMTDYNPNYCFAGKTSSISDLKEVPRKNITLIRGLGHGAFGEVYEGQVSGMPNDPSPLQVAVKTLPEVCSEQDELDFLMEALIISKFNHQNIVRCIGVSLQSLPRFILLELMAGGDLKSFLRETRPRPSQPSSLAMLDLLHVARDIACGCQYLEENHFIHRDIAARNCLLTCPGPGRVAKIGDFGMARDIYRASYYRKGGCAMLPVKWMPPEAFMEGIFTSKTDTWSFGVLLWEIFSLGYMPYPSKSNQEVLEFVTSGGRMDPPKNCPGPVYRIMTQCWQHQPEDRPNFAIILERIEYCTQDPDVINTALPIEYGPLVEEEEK

With `C[C@@H](Oc1cc(-c2cnn(C3CCNCC3)c2)cnc1N)c1c(Cl)ccc(F)c1Cl` [Crizotinib, reference compound], the results for the half-maximal inhibitory concentration (IC50) with HEK-293T cells, in the data set on SK-MEL-28 cells and in the data set with SNU-5 cells were 6 µM, 6 µM and 0.015 µM, respectively.
As to `CC(=O)OC[C@H]1O[C@@H](OC(=O)N2CCC(n3cc(-c4cnc(N)c(O[C@H](C)c5c(Cl)ccc(F)c5Cl)c4)cn3)CC2)[C@H](OC(C)=O)[C@@H](OC(C)=O)[C@@H]1OC(C)=O` [GA89], the IC50 (commonly the concentration at which inhibition is half-maximal) in the data set with HEK-293T cells was 5 µM; in the data set with SK-MEL-28 cells, 5 µM; with SNU-5 cells, 0.045 µM; in data set [1], 1.1 µM.
In the case of `C[C@@H](Oc1cc(-c2cnn(C3CCN(C(=O)O[C@@H]4O[C@H](CO)[C@@H](O)[C@H](O)[C@H]4O)CC3)c2)cnc1N)c1c(Cl)ccc(F)c1Cl` [GA95], in data set [2] (mouse, plasma, oral GA95 91.6 mg/kg, male C57 mice, analyte GA95), the half-life (commonly the time needed for the level to fall by half in the phase considered) is 43.6 min. For the same compound, in data set [2] (setting [3]), the AUC(0-inf) amounted to 42.6 ng·h/mL, the AUC(0-t) is 37.6 ng·h/mL, the Cmax is 33.6 ng/mL and the MRT is 64.8 min. In addition, the Tmax in data set [2] (setting [3]) was 15 min. Besides, the “plasma concentration of crizotinib after oral application of the glucoside” value in data set [2] (oral GA95, male C57 mice, compared with the crizotinib group) is given as “quickly increased to the similar level as the crizotinib group”. In addition, the half-inhibitory concentration (IC50) in the data set with HEK-293T cells stood at 25 µM. Further, the concentration for half-maximal inhibition (IC50) in the data set with SK-MEL-28 cells came out at 25 µM. Further, the IC50 in the data set on SNU-5 cells was 0.022 µM. The compound further showed a half-inhibitory concentration (IC50) in data set [1] of 0.3 µM.
Turning to `Cc1c(N)nc([C@H](CC(N)=O)NC[C@H](N)C(N)=O)nc1C(=O)N[C@H](C(=O)N[C@H](C)[C@@H](O)[C@H](C)C(=O)N[C@H](C(=O)NCCc1nc(-c2nc(C(=O)NCCCNCCCCNC(=O)OC3O[C@@H](CO)[C@@H](O)[C@H](O)[C@@H]3O[C@H]3O[C@H](CO)[C@@H](O)[C@H](OC(N)=O)[C@@H]3O)cs2)cs1)[C@@H](C)O)[C@@H](O)c1c[nH]cn1` (stereo partly shown) [compound 5], the cytotoxic activity result with cancer cells is listed as “significantly more potent cytotoxic activity than deglycoBLM (6)”.
